{
  "source": "patent US20210290629A1",
  "about": "(priority 2016, published 2021)",
  "key": {"[1]": {"test_system": "GFP-expressing Mycobacterium tuberculosis H37Rv", "type": "cell-based"}, "[2]": {"test_system": "Mycobacterium tuberculosis (Mtb H37Rv) in human monocyte-derived macrophages (hMDM)", "type": "cell-based", "settings": "seven days; for intracellular growth of Mycobacterium tuberculosis in primary human macrophages (CFU): 300 nM"}, "[3]": {"test_system": "human monocyte-derived macrophages (hMDM)", "experiment": "Cell viability analysis by impedance measurements (xCELLigence)", "type": "cell-based", "settings": "FIG. 5 and 6, range of tested concentrations (30, 100 and 300 nM), 120 h", "description": "3) Cell Viability Analysis by Impedance Measurements\nReal-time viability assays (5×10^4 human monocyte derived macrophages/well) were performed with the xCELLigence System (Acea Biosciences Inc.) (Otero-Gonzalez L et al., Environ Sci Technol. 2012; 46(18):10271-8). Impedance measurement was carried out using plates with incorporated sensor array (E-Plate) and the Real-Time Cell Analyzer (RTCA) SP instrument for 120 h. After equilibration of the cells in RPMI 1640 with 10% FCS and 4 mM L-glutamine for 3 h, cells incubated in the absence (medium) or the presence of the ACC2 inhibitor (30, 100 and 300 nM) and staurosporine (1 μg/ml). Data obtained was analyzed using the RTCA Software 2.0 (Acea Biosciences Inc.) see FIGS. 5 and 6."}, "M. tuberculosis AccD5": {"biological_target": "M. tuberculosis AccD5 (Mycobacterium tuberculosis, UniProt P9WQH7)", "sequence (P9WQH7 whole entry)": "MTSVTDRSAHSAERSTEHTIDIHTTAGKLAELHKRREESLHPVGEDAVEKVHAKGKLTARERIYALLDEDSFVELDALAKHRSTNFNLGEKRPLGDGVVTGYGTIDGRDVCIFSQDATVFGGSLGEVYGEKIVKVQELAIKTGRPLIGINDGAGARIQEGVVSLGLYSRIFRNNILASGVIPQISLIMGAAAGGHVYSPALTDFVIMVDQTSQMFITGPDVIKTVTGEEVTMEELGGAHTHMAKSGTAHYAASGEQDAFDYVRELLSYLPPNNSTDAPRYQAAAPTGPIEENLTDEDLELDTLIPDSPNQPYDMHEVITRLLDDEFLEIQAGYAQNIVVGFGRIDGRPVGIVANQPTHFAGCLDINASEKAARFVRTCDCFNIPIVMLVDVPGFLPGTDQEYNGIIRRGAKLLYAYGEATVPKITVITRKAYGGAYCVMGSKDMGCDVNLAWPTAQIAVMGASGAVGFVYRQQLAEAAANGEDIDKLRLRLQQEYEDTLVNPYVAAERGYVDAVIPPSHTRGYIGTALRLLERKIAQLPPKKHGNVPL", "sequence (P9WPQ3 whole entry, further chain)": "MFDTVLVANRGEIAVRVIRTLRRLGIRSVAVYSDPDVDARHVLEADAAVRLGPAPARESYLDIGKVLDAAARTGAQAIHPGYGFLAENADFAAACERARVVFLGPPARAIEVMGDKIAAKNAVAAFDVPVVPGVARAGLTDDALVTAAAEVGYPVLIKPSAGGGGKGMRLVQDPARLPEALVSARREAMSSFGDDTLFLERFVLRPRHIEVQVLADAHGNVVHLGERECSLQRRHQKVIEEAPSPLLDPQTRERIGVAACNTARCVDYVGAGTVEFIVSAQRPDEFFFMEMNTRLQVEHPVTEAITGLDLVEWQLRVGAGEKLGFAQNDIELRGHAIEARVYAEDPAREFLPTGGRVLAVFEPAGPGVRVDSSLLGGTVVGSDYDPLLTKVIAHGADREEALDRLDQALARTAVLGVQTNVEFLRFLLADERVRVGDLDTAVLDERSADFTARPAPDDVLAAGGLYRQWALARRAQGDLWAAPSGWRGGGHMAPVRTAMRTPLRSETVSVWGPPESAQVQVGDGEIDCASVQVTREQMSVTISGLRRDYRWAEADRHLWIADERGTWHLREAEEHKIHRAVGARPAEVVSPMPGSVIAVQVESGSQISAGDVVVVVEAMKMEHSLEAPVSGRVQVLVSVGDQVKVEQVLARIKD", "settings": "literature, Lin T-W. et al., PNAS 2006; cited from earlier work"}, "M, tuberculosis": {"test_system": "M, tuberculosis", "settings": "literature, Singhal A. et al., Science Translational Medicine 2014; cited from earlier work"}, "[4]": {"settings": "FIG. 8 and 9, indicated concentrations, day 7"}},
  "note": "Like-named read-outs stand apart in the source and are kept apart here.",
  "data": [
    {"smiles": "O=C(c1c2ccccc2cc2ccccc12)N1CCC(N2CCC[C@@H](C(=O)N3CCOCC3)C2)CC1", "note": "[CP640.186]", "values": [
      {"measurement": "growth of Mycobacterium tuberculosis (Mtb) in liquid culture (fluorescence signal intensity at 528 nm)", "setting": "[1]; [4]", "value": "does not affect growth"},
      {"measurement": "intracellular growth of Mycobacterium tuberculosis in primary human macrophages (CFU)", "setting": "[2]; FIG. 4, 500 nM, one out of two experiments", "value": "dose-dependently reduces intracellular growth"},
      {"measurement": "viability of primary human macrophages (cell index, impedance)", "setting": "[3]", "value": "does not affect the viability"}
    ]},
    {"smiles": "CC(Oc1ccc(Oc2ccc(Cl)cc2Cl)cc1)C(=O)O", "note": "(stereo not drawn) [Diclofop]", "values": [
      {"measurement": "inhibition of M. tuberculosis AccD5", "setting": "M. tuberculosis AccD5", "value": "cannot be inhibited"}
    ]},
    {"smiles": "CC(Oc1ccc(Oc2ncc(C(F)(F)F)cc2Cl)cc1)C(=O)O", "note": "(stereo not drawn) [Haloxyfop]", "values": [
      {"measurement": "inhibition of M. tuberculosis AccD5", "setting": "M. tuberculosis AccD5", "value": "cannot be inhibited"}
    ]},
    {"smiles": "COc1cc(C(=O)N2CCC3(CC2)CC(=O)c2cc(-c4cncc(C(=O)O)c4)ccc2O3)cc2c1c(C)cn2C1CC1", "note": "[MK-4074]", "values": [
      {"measurement": "growth of Mycobacterium tuberculosis (Mtb) in liquid culture (fluorescence signal intensity at 528 nm)", "setting": "[1]; [4]", "value": "do not affect growth"}
    ]},
    {"smiles": "CN(C)C(=N)N=C(N)N", "note": "[Metformin]", "values": [
      {"measurement": "intracellular growth of M. tuberculosis", "setting": "M, tuberculosis", "value": "reducing the intracellular growth"}
    ]},
    {"smiles": "COc1ccccc1[C@H](Cn1c(=O)n(C(C)(C)C(N)=O)c(=O)c2c(C)c(-c3ncco3)sc21)OC1CCOCC1", "note": "[ND-646]", "values": [
      {"measurement": "growth of Mycobacterium tuberculosis (Mtb) in liquid culture (fluorescence signal intensity at 528 nm)", "setting": "[1]; [4]", "value": "do not affect growth"}
    ]},
    {"smiles": "CC(=O)NC(C)c1cnc(-c2cnc(Oc3ccc(OC(C)C)cc3)s2)s1", "note": "(stereo not drawn) [ab142090, N-(1-(2′-(4-isopropoxyphenoxy)-2,5′-bithiazol5-yl)ethyl)Acetamide]", "values": [
      {"measurement": "growth of Mycobacterium tuberculosis (Mtb) in liquid culture (fluorescence signal intensity at 528 nm)", "setting": "[1]; FIG. 1, indicated concentrations and time points, two independent experiments", "value": "does not affect the growth"},
      {"measurement": "intracellular growth of Mycobacterium tuberculosis in primary human macrophages (CFU)", "setting": "[2]; FIG. 2, 100 nM, three donors", "value": "dose-dependently reduces intracellular growth"},
      {"measurement": "intracellular growth of Mycobacterium tuberculosis in primary human macrophages (CFU), combination with antibiotics", "setting": "[2]; FIG. 3, 100 nM or 300 nM in combination with rifampicin or isoniazid in suboptimal concentrations, three donors", "value": "reduces intracellular growth"},
      {"measurement": "viability of primary human macrophages (cell index, impedance)", "setting": "[3]", "value": "does not affect the viability"}
    ]}
  ]
}
